One data set deals with MDCK-MDR1 cells. The experiment in a line: MTT cytotoxicity assay. Format: cell-based, canine. The method, then:
(§1) MDCK-MDR1 cells at passage 17 were cultured in DMEM supplemented with 10% FBS, 1% glutamine, 100 U/mL penicillin/streptomycin, 1% NEAA, and 1 mmol/L sodium pyruvate. The cells were incubated overnight at 37°C with 5% CO2 and a relative humidity of 90%. Once the cells reached approximately 80% confluence, they were treated with a 0.25% trypsin/EDTA solution to dissociate the cells. Subsequently, the cells were seeded at a density of 5 × 10^5 cells/cm^2 in Millicell-96 well plates (Millipore, Burlington, USA). Prior to conducting the experiments, the integrity of the cell monolayer was confirmed by measuring transepithelial electrical resistance (TEER) using a Millicell ERS® meter (Millipore, Burlington, USA). A TEER value greater than 400 Ω cm^2 was required to ensure the formation and preservation of tight junctions.
(§2) The ability of ammoxetine to inhibit the growth of MDCK-MDR1 cells was evaluated using the MTT assay. Ammoxetine was diluted with transport buffer [Hank’s balanced salt solution (HBSS) containing 6.0 g HEPES, pH 7.2–7.4] from a stock solution (2 mg/mL) dissolved in HBSS to create a series of standard concentrations: 1.28, 6.4, 32, 160, 800 ng/mL and 4, 20, 100, 500 μg/mL. Prior to the assay, the cell culture medium was aspirated and replaced with different standard concentrations of ammoxetine (100 μL/well, n = 6). The cells were then incubated at 37°C for 3 h. Following the incubation, 20 μL of MTT solution (5 mg/mL) was added to each well, and the incubation was continued for 4 h. Subsequently, the solution in each well was discarded, and 150 μL of dimethyl sulfoxide was added. After vortexing for 10 min, the absorbance was measured at 570 nm using a Varioskan® Flash multimode reader (Thermo Fisher Scientific, Waltham, USA). Blank control solutions, consisting of HBSS without ammoxetine, were also applied to the cells. The absorbance values were then used to calculate the relative growth rate (RGR, %) of cells using the formula RGR = ODammoxetine/ODblank × 100%, where ODammoxetine and ODblank represent the mean absorbance values of six parallel measurements in the ammoxetine and blank control solutions, respectively ([Ji et al., 2024]). The Prism 5 software (GraphPad Software, Inc., San Diego, USA) was used to determine the 50% toxic concentration (TC50) value of ammoxetine.

The nature of another data set: MTT cytotoxicity assay. Format: cell-based, canine. The following applies: dog, MDCK-MDR1 cells; 0–20 μg/mL, 3 h; read-out: cellular inhibition rate. On the procedure:
as §1, §2
(Tetrazolium assays rely on reduction of a dye to a coloured formazan, in cell work by metabolically active cells.)

Data set [1] in a line: PPB assay by ultrafiltration, human plasma. Format: in vitro ADME, humans. The method, then:
The PPB of ammoxetine was determined using the ultrafiltration method. Triplicate samples of rat, dog, or human plasma were spiked with ammoxetine at three final concentrations (50, 150, and 450 ng/mL). The spiked plasma samples were then incubated in a 37°C air-bath shaker for 1 h until equilibrium was reached. After incubation, 400 μL of the plasma samples were transferred to pre-saturated ultrafiltration devices. These devices were subsequently centrifuged at 13,800×g and 20°C for 20 min to separate the unbound ammoxetine. 100 μL of the test samples were taken and mixed with 100 μL of the IS, L-phencynonate (50 ng/mL), and 300 μL of methanol. Following centrifugation at 13,800×g for 10 min, the supernatants were used to determine the total and free concentrations of ammoxetine in the plasma (C t , C f ) using an LC-MS-MS method. The PPB rate (%) of ammoxetine was calculated by dividing (C t −C f ) by C t .

Converted amounts (≈) assume the structure as drawn. Where only a bound is given, the exact number is not on record here.

For orientation: inhibition means the relative decrease from the control value, in per cent. With `CNCC[C@H](Oc1cccc2c1OCO2)c1cccs1` [ammoxetine], the “RGR (%)” value in the data set with MDCK-MDR1 cells (0.16 μg/mL) was 103.48±9.43%; in the data set on MDCK-MDR1 cells (0.80 μg/mL), 102.55±18.09%; with MDCK-MDR1 cells (4 μg/mL), 103.59±20.82%; in the data set with MDCK-MDR1 cells (20 μg/mL) it was 89.16±12.89%; in the data set with MDCK-MDR1 cells (100 μg/mL), 55.53±7.87%; with MDCK-MDR1 cells (500 μg/mL) it was 24.49±2.36%. For the same compound, the figures for the “RGR (%)” value in the data set with MDCK-MDR1 cells (1.28×e-3 μg/mL), with MDCK-MDR1 cells (3.20×e-2 μg/mL) and in the data set on MDCK-MDR1 cells (6.40×e-3 μg/mL) were 113.13±22.65%, 103.57±14.18% and 114.88±14.68%, respectively. The compound further displayed a TC50 in the data set on MDCK-MDR1 cells (50% toxic concentration from ln concentration-RGR curve) of 79.76 ± 18.94 µg/mL (≈ 274 µM). Besides, in “MTT cytotoxicity assay”, the inhibition at 3 h was under 10%. Besides, the fraction unbound at 1 h, 50 ng/mL in data set [1] (50 ng/mL, read-out: Percentage of ammoxetine-protein binding rate (%) (converted)) was 0.415. Also, the fraction unbound at 1 h, 150 ng/mL in data set [1] (150 ng/mL, read-out: Percentage of ammoxetine-protein binding rate (%) (converted)) is 0.503. For the same compound, in data set [1] (450 ng/mL, read-out: Percentage of ammoxetine-protein binding rate (%) (converted)), the fraction unbound at 1 h, 450 ng/mL is 0.45. The fraction unbound at 1 h in data set [1] (approximate range over 50-450 ng/mL, read-out: PPB rate) lay in the range of 0.4 to 0.5.
